Patent US9101620B2, “Polymorph of 3-(substituteddihydroisoindolinone-2-yl)-2,6-dioxopiperidine, and pharmaceutical compositions thereof” (Nanjing Cavendish Bio-Engineering Technology Co., Ltd., priority 2009, dated 2015)

Assays:
Format in all cases: physicochemical
[1] = Destruction test: impurities in raw materials before destruction (HPLC)
From the text: The methods of destruction experiment of the Polymorph I of this invention (hereinafter referred to as “Polymorph I”) contrasting with the Polymorph A and B of 3-(4-amino-1-oxo-1,3-dihydro-2H-isoindole-2-yl)-piperidine-2,6-dione prepared by the method in CN 1871003A (hereinafter referred to as “Polymorph A” and “polymorph B”) and results of stability are followed:
(§1) HPLC conditions and system applicability: octadecylsilane bonded silica as the filler; 0.01 mol/L of potassium dihydrogen phosphate (adjusted to pH 3.5 by phosphoric acid)-methanol-acetonitrile (80:15:5) as the mobile phase; detection wavelength was 240 nm; the number of theoretical plates should be not less than 2000, calculated according to the peak of lenalidomide. The resolution of the peak of 3-(4-amino-1-oxo-1,3-dihydro-2H-isoindole-2-yl)-piperidine-2,6-dione from the peaks of adjacent impurities should meet requirements.
(§2) Determination method: sample was dissolved in mobile phase to be the solution containing 0.5 mg per 1 mL. 20 μL of such solution was injected into liquid chromatograph and chromatogram was recorded until fourfold the retention time of major component peak. If there were impurities peaks in the chromatogram of sample solution, total impurities and sole impurity were calculated by normalization method on the basis of peak area.

[2] = Oxidation destruction (30% H2O2), related substances by HPLC
Experimental: (§3) Oxidation destruction: 50 mg of sample weighted accurately was added into measuring flask of 100 mL, and 10 mL 30% H2O2 was added. After standing at room temperature for 2 hour, the mixture was diluted with mobile phase to scale and shook to be homogeneous, and determined by HPLC.
as §1, §2

[3] = Acid destruction (0.1 mol/L HCl), related substances by HPLC
Experimental: as §3, with “Acid” for “Oxidation”, “0.1 mol/L HCl solution” for “30% H2O2”, “1” for “2”, “hour, an equal amount of 0.1 mol/L NaOH solution was added for neutralization. Then” for “hour,”
as §1, §2

[4] = 30% H2O2, room temperature, 2 hour
[5] = 0.1 mol/L HCl, room temperature, 1 hour

SMILES: Nc1cccc2c1CN(C1CCC(=O)NC1=O)C2=O (single isomer, unassigned) [Polymorph I, 3-(4-amino-1-oxo-1,3-dihydro-2H-isoindole-2-yl)-piperidine-2,6-dione]
- Major impurity, peak tR5.872-5.948 [1]: 0.01%
- Major impurity, peak tR10.961-11.165 [1]: 0.03%
- Total impurities in raw materials before destruction ([1]; HPLC peak area normalization): impurities: 0.04%
- Major impurity, peak tR5.649-5.660 [2, 4]: 0.09%
- Major impurity, peak tR10.372-10.401 [2, 4]: 0.03%
- Major impurity, peak tR32.279-32.318 [2, 4]: 0.01%
- Major impurity, peak tR35.063-35.098 [2, 4]: 0.02%
- Total impurities generated by oxidation destruction [2, 4]: impurities: 0.16%
- Chemical stability (in words) ([2]; oxidating condition / oxidation destroy experiment): better stability
- Major impurity, peak tR4.717-4.737 [3, 5]: 0.20%
- Major impurity, peak tR7.367-7.381 [3, 5]: 0.41%
- Major impurity, peak tR11.067-11.100 [3, 5]: 0.01%
- Total impurities generated by 0.1 mol/L acid destruction for 1 hour [3, 5]: impurities: 0.62%
- Chemical stability (in words) ([3]; acid condition / 0.1 mol/L diluted HCl solution): better stability
